Laboratory results taken from patent US20220339143A1, “TAK-925 FOR USE IN TREATING NARCOLEPSY” (Takeda Pharmaceutical Company Limited, priority 2019, published 2022).

Test: Single dose PK in healthy subjects (Cohorts 1, 2, S1 and S2), plasma
Format: in vivo, human
Experimental: This study investigates (i) the safety and tolerability of Compound A (methyl (2R,3S)-3-((methylsulfonyl)amino)-2-(((cis-4-phenylcyclohexyl)oxy)methyl)piperidine-1-carboxylate) when a single dose given as a 9 hour continuous IV infusion is administered to healthy adults, healthy elderly subjects and patients with narcolepsy type 1 (NT1); (ii) the pharmacokinetics of Compound A when a single dose given as a 9 hour continuous IV infusion is administered to healthy adults, healthy elderly subjects and patients with narcolepsy type 1; and (iii) the pharmacodynamics (PD) effects of Compound A, primarily by evaluation of the sleep latency on MWT when a single dose given as a 9 hour continuous IV infusion is administered to patients with narcolepsy type 1.
Pharmacokinetics: Concentrations of Compound A in plasma, and CSF, and pharmacokinetics parameters.
On average, the time to reach the plateau appeared to be approximately 3 to 4 hours after the start of infusion. […] After switching off the IV infusion, Compound A plasma concentrations declined rapidly and in a biphasic manner with a mean terminal disposition phase t1/2z ranging approximately from 3.4 to 5.1 hours across all doses. […] Table 5 provides a summary of plasma concentrations of Compound A after a single IV infusion in healthy subjects. Table 6 provides a summary of pharmacokinetic parameters of Compound A after a single IV infusion in healthy subjects.

[1] = 7 mg single IV infusion, healthy subjects
[2] = 7 mg, 0.17 hr After End of Infusion
[3] = 14 mg single IV infusion, healthy subjects
[4] = 28 mg single IV infusion, healthy subjects
[5] = 28 mg, 0.17 hr After End of Infusion
[6] = 28 mg, 0.33 hr After End of Infusion
[7] = 28 mg, 0.5 hr After End of Infusion
[8] = 28 mg, 0.75 hr After End of Infusion
[9] = 28 mg, 1 hr After End of Infusion
[10] = 28 mg, 1.5 hr After End of Infusion
[11] = 28 mg, 2 hr After End of Infusion
[12] = 56 mg single IV infusion, healthy subjects
[13] = 56 mg, 0.17 hr After End of Infusion
[14] = 56 mg, 0.33 hr After End of Infusion
[15] = 56 mg, 0.5 hr After End of Infusion
[16] = 56 mg, 0.75 hr After End of Infusion
[17] = 56 mg, 1 hr After End of Infusion
[18] = 56 mg, 1.5 hr After End of Infusion

## COC(=O)N1CCC[C@H](NS(C)(=O)=O)[C@@H]1CO[C@H]1CC[C@@H](c2ccccc2)CC1 [Compound A, methyl (2R,3S)-3-((methylsulfonyl)amino)-2-(((cis-4-phenylcyclohexyl)oxy)methyl)piperidine-1-carboxylate]
[1]
  AUCinf D Mean: 20.48 ng·h/mL/mg
  AUCinf D Median: 20.80 ng·h/mL/mg
  CL Median: 48.10 L/h
  Cmax D Mean: 2.416 ng/mL/mg
  Cmax D Median: 2.360 ng/mL/mg
  Vss Median: 100.0 L
  t½z Mean: 4.120 h
  t½z Median: 3.220 h
[2]
  Plasma concentration, Mean: 9.360 ng/mL
  Plasma concentration, Minimum: 7.91 ng/mL
  Plasma concentration, Q1: 9.090 ng/mL
7 mg, Predose
  Plasma concentration, Mean: 0.000 ng/mL
  Plasma concentration, Minimum: 0.00 ng/mL
  Plasma concentration, Q1: 0.000 ng/mL
[3]
  AUCinf D Mean: 23.70 ng·h/mL/mg
  AUCinf D Median: 23.05 ng·h/mL/mg
  Cmax D Mean: 2.647 ng/mL/mg
  Cmax D Median: 2.640 ng/mL/mg
  t½z Mean: 4.498 h
  t½z Median: 4.170 h
[4]
  AUCinf D Mean: 18.90 ng·h/mL/mg
  AUCinf D Median: 19.60 ng·h/mL/mg
  Cmax D Mean: 2.076 ng/mL/mg
  Cmax D Median: 2.120 ng/mL/mg
  t½z Mean: 5.142 h
  t½z Median: 5.060 h
[5]
  Plasma concentration, Maximum: 34.9 ng/mL
  Plasma concentration, Mean: 32.52 ng/mL
  Plasma concentration, Median: 32.80 ng/mL
  Plasma concentration, Minimum: 28.2 ng/mL
  Plasma concentration, Q1: 32.70 ng/mL
  Plasma concentration, Q3: 34.00 ng/mL
[6]
  Plasma concentration, Maximum: 32.2 ng/mL
  Plasma concentration, Mean: 28.04 ng/mL
  Plasma concentration, Median: 27.20 ng/mL
  Plasma concentration, Minimum: 25.4 ng/mL
  Plasma concentration, Q1: 26.70 ng/mL
  Plasma concentration, Q3: 28.70 ng/mL
[7]
  Plasma concentration, Maximum: 33.7 ng/mL
  Plasma concentration, Mean: 25.36 ng/mL
  Plasma concentration, Median: 24.20 ng/mL
  Plasma concentration, Minimum: 20.9 ng/mL
  Plasma concentration, Q1: 21.30 ng/mL
  Plasma concentration, Q3: 26.70 ng/mL
[8]
  Plasma concentration, Maximum: 23.9 ng/mL
  Plasma concentration, Mean: 20.82 ng/mL
  Plasma concentration, Median: 19.50 ng/mL
  Plasma concentration, Minimum: 19.0 ng/mL
  Plasma concentration, Q1: 19.10 ng/mL
  Plasma concentration, Q3: 22.60 ng/mL
[9]
  Plasma concentration, Maximum: 21.4 ng/mL
  Plasma concentration, Mean: 18.56 ng/mL
  Plasma concentration, Median: 18.00 ng/mL
  Plasma concentration, Minimum: 15.6 ng/mL
  Plasma concentration, Q1: 17.80 ng/mL
  Plasma concentration, Q3: 20.00 ng/mL
[10]
  Plasma concentration, Maximum: 18.9 ng/mL
  Plasma concentration, Mean: 16.70 ng/mL
  Plasma concentration, Median: 18.00 ng/mL
  Plasma concentration, Minimum: 13.6 ng/mL
  Plasma concentration, Q1: 14.90 ng/mL
  Plasma concentration, Q3: 18.10 ng/mL
[11]
  Plasma concentration, Maximum: 13.4 ng/mL
  Plasma concentration, Mean: 10.53 ng/mL
  Plasma concentration, Median: 9.600 ng/mL
  Plasma concentration, Minimum: 8.06 ng/mL
  Plasma concentration, Q1: 8.990 ng/mL
  Plasma concentration, Q3: 12.60 ng/mL
[12]
  AUCinf D Mean: 19.27 ng·h/mL/mg
  AUCinf D Median: 18.75 ng·h/mL/mg
  Cmax D Mean: 2.200 ng/mL/mg
  Cmax D Median: 2.170 ng/mL/mg
  t½z Mean: 3.860 h
  t½z Median: 3.760 h
[13]
  Plasma concentration, Maximum: 79.9 ng/mL
  Plasma concentration, Mean: 63.58 ng/mL
  Plasma concentration, Median: 62.50 ng/mL
  Plasma concentration, Minimum: 54.5 ng/mL
  Plasma concentration, Q1: 55.60 ng/mL
  Plasma concentration, Q3: 66.50 ng/mL
[14]
  Plasma concentration, Mean: 54.37 ng/mL
  Plasma concentration, Median: 53.25 ng/mL
  Plasma concentration, Minimum: 44.7 ng/mL
  Plasma concentration, Q1: 45.00 ng/mL
[15]
  Plasma concentration, Mean: 50.33 ng/mL
  Plasma concentration, Median: 50.10 ng/mL
  Plasma concentration, Minimum: 38.4 ng/mL
  Plasma concentration, Q1: 40.90 ng/mL
[16]
  Plasma concentration, Mean: 45.77 ng/mL
  Plasma concentration, Median: 47.20 ng/mL
  Plasma concentration, Minimum: 33.3 ng/mL
  Plasma concentration, Q1: 36.90 ng/mL
[17]
  Plasma concentration, Mean: 41.83 ng/mL
  Plasma concentration, Median: 39.80 ng/mL
  Plasma concentration, Minimum: 30.1 ng/mL
  Plasma concentration, Q1: 34.80 ng/mL
[18]
  Plasma concentration, Mean: 33.63 ng/mL
  Plasma concentration, Median: 31.35 ng/mL
  Plasma concentration, Minimum: 27.4 ng/mL
  Plasma concentration, Q1: 28.40 ng/mL
